Data set [1] concerns Neisseria gonorrhoeae. The data set can be described thus: Antimicrobial activity against Neisseria gonorrhoeae assessed as susceptible isolates by EUCAST method. The class given is functional.
The next data set deals with Chlamydia trachomatis. The data set can be described thus: Antimicrobial activity against Chlamydia trachomatis isolates. The class given is functional. The note with it: for MBC / MIC90: Chlamydia trachomatis.
The test system of data set [2] is Neisseria gonorrhoeae. Briefly: Antimicrobial activity against Neisseria gonorrhoeae isolates by CLSI agar dilution method. In kind it is functional. On the technique in general: Agar dilution tests growth on a series of plates holding different concentrations.
Data set [3] deals with Neisseria gonorrhoeae. Briefly: Antimicrobial activity against Neisseria gonorrhoeae assessed as resistant isolates by EUCAST method. In kind it is functional.
In data set [4] the test system is Neisseria gonorrhoeae. Briefly: Antimicrobial activity against Neisseria gonorrhoeae assessed as susceptible isolates by CLSI method. The class given is functional.
The next data set has as its system Plasma. Briefly: Trough plasma concentration in human. The class given is ADME, cell-free.
Data set [5] concerns Neisseria gonorrhoeae. The data set can be described thus: Antimicrobial activity against Neisseria gonorrhoeae isolates up to 2 ug/ml by CLSI agar dilution method. The class given is functional, organism-based.
In data set [6] the test system is Neisseria gonorrhoeae. The data set can be described thus: Antimicrobial activity against Neisseria gonorrhoeae assessed as resistant isolates by CLSI method. In kind it is functional.

≈ marks a conversion by molar mass, not a printed value. Calls of active or inactive are those of the source. No cut-off for these calls is given here.

A word on the MBC: it is the lowest tested concentration that kills the bacteria rather than only halting them. A low value points to more potent killing. As a reminder, the MIC90 is an inhibitory concentration at the 90% level, which refers to growth in some studies and to a panel of isolates in others. Read a low MIC90 as higher susceptibility. For orientation: MIC50 means the lowest concentration that inhibits either 50% of growth or 50% of the strains tested, depending on the study. Read a high MIC50 as weaker potency. On to `CC[C@H]1OC(=O)[C@H](C)[C@@H](O[C@H]2C[C@@](C)(OC)[C@@H](O)[C@H](C)O2)[C@H](C)[C@@H](O[C@@H]2O[C@H](C)C[C@H](N(C)C)[C@H]2O)[C@](C)(O)C[C@@H](C)CN(C)[C@H](C)[C@@H](O)[C@]1(C)O` [AZITHROMYCIN], for which the Activity with Neisseria gonorrhoeae [1] was found to be 80%. In the data set on Chlamydia trachomatis, this compound registered an MBC90 of 0.12 µg/mL (≈ 0.16 µM), an MBC of 0.015 µg/mL (≈ 0.02 µM) and an MIC90 of 0.12 µg/mL (≈ 0.16 µM). Also, the MIC50 in the data set with Neisseria gonorrhoeae [2] turned out to be 0.25 µg/mL (≈ 0.334 µM). Moreover, the Activity in the data set on Neisseria gonorrhoeae [3] was 5.7%.

In the case of `CO/N=C(\C(=O)N[C@@H]1C(=O)N2C(C(=O)O)=C(CSc3nc(=O)c(O)nn3C)CS[C@H]12)c1csc(N)n1` [CEFTRIAXONE], the Activity in the data set on Neisseria gonorrhoeae [1] worked out at 100%; with Neisseria gonorrhoeae [4], 100%; in the data set on Neisseria gonorrhoeae [3], 0%.

On to `CC[C@H]1OC(=O)[C@H](C)[C@@H](O[C@H]2C[C@@](C)(OC)[C@@H](O)[C@H](C)O2)[C@H](C)[C@@H](O[C@@H]2O[C@H](C)C[C@H](N(C)C)[C@H]2O)[C@](C)(OC)C[C@@H](C)C(=O)[C@H](C)[C@@H](O)[C@]1(C)O` [CLARITHROMYCIN], for which, in the data set on Chlamydia trachomatis, the MBC90 was determined as 0.06 µg/mL (≈ 0.0802 µM), the MBC came to 0.015 µg/mL (≈ 0.0201 µM) and the MIC90 worked out at 0.06 µg/mL (≈ 0.0802 µM).

In the data set on Chlamydia trachomatis, `C[C@H]1c2cccc(O)c2C(=O)C2=C(O)[C@]3(O)C(=O)C(C(N)=O)=C(O)[C@@H](N(C)C)[C@@H]3[C@@H](O)[C@@H]21.O` [DOXYCYCLINE] displayed an MBC90 of 0.06 µg/mL, an MBC of 0.015 µg/mL and an MIC90 of 0.06 µg/mL.

On to `CC(=O)O[C@H]1C[C@@]2(C)[C@@H](C[C@@H](O)[C@H]3[C@@]4(C)CC[C@@H](O)[C@@H](C)[C@@H]4CC[C@@]32C)/C1=C(\CCC=C(C)C)C(=O)O` [FUSIDIC ACID], for which, in the data set on Chlamydia trachomatis, the MBC90 was found to be 0.5 µg/mL (≈ 0.968 µM), the MBC stood at 0.12 µg/mL (≈ 0.232 µM) and the MIC90 came to 0.5 µg/mL (≈ 0.968 µM). Besides, in the data set with Neisseria gonorrhoeae [2], the MIC50 turned out to be 0.5 µg/mL (≈ 0.968 µM) and the MIC90 amounted to 1 µg/mL (≈ 1.94 µM). In the data set with Plasma, this compound returned a Cmin of 80 µg/mL. In the data set with Neisseria gonorrhoeae [5], the result was Active.

`CC1(C)S[C@@H]2[C@H](NC(=O)Cc3ccccc3)C(=O)N2[C@H]1C(=O)O` [PENICILLIN G]: the Activity with Neisseria gonorrhoeae [1] amounted to 22.9%; in the data set with Neisseria gonorrhoeae [6], 45.7%; in the data set on Neisseria gonorrhoeae [4], 22.9%; in the data set with Neisseria gonorrhoeae [3] it was 45.7%. Moreover, the MIC50 against Neisseria gonorrhoeae [2] was determined as 1 µg/mL (≈ 2.99 µM).

In the data set on Chlamydia trachomatis, `CC[C@H]1OC(=O)[C@H](C)C(=O)[C@H](C)[C@@H](O[C@@H]2O[C@H](C)C[C@H](N(C)C)[C@H]2O)[C@](C)(OC)C[C@@H](C)C(=O)[C@H](C)[C@H]2N(CCCCn3cnc(-c4cccnc4)c3)C(=O)O[C@]12C` [TELITHROMYCIN] registered an MBC90 of 0.06 µg/mL (≈ 0.0739 µM), an MBC of 0.015 µg/mL (≈ 0.0185 µM) and an MIC90 of 0.06 µg/mL (≈ 0.0739 µM).

In the case of `CN(C)[C@@H]1C(O)=C(C(N)=O)C(=O)[C@@]2(O)C(O)=C3C(=O)c4c(O)cccc4[C@@](C)(O)[C@H]3C[C@@H]12` [TETRACYCLINE], the Activity with Neisseria gonorrhoeae [1] was 45.7%; in the data set with Neisseria gonorrhoeae [6] it was 34.3%; with Neisseria gonorrhoeae [4], 22.9%; in the data set on Neisseria gonorrhoeae [3], 34.3%. The compound further registered an MIC50 with Neisseria gonorrhoeae [2] of 1 µg/mL (≈ 2.25 µM).

(Values after ChEMBL document CHEMBL1649332, “Update on fusidic acid (CEM-102) tested against Neisseria gonorrhoeae and Chlamydia trachomatis” (Antimicrob Agents Chemother, 2010).)
